The nature of series [1]: In vitro penetration across isolated human skin in modified Franz cells. The procedure:
Penetration rates of HPPs and their parent drugs through human skin were measured in vitro by modified Franz cells. A Franz cell had two chambers, the top sample chamber and the bottom receiving chamber. The human skin tissue (360-400 μm thick) that separated the top and the receiving chambers was isolated from the anterior or posterior thigh areas.
A test compound (2 mL, 10% in 0.2 M phosphate buffer, pH 7.4) was added to the sample chamber of a Franz cell. The receiving chamber contained 10 ml of 0.2 M phosphate buffer which was stirred at 600 rpm. The amount of the tested compound penetrating the skin was determined by high-performance liquid chromatography (HPLC) method.

Series [2] is described as follows: Conversion of HPPs to parent drugs in human plasma (half life). The note with it: human, plasma. In kind it is in vitro ADME. The method, then: HPPs of antimicrobials or antimicrobial-related compounds converted to the parent antimicrobials or antimicrobial-related compounds quickly in good yield in human plasma.
A HPP of antimicrobial or antimicrobial-related compound (10 mg) was dissolved in 0.1 ml of 0.2M pH 7.4 phosphate buffer. 1 ml of human plasma, preheated to 37° C., was added into the mixture. The mixture was kept in a water bath at 37° C., and at every 2 min intervals 0.2 ml of samples were withdrawn and added to 0.4 ml of methanol to precipitate the plasma protein.

The mark [3] stands for this setting: Table 1b, isolated human skin, Franz cells, 10% in 0.2 M phosphate buffer pH 7.4, n=5.

Counter-ions that a name gives are not always drawn.

In the case of `CCCN(CCC)CCOC(=O)C1N2C(=O)C(NC(=O)c3c(OC)cccc3OC)C2SC1(C)C.Cl` (stereo not shown) [6-(2,6-dimethoxybenzamido)penicillinic acid 2-dipropylaminoethyl ester hydrochloride], the “In vitro Penetration Rate (apparent flux), HPPs” value in series [1] (pH 7.4) came out at 0.52 ± 0.07 mg/cm^2/h.

Consider `Cc1onc(-c2c(Cl)cccc2Cl)c1C(=O)NC1C(=O)N2C1SC(C)(C)C2C(=O)OCCN1CCCCC1.Cl` (stereo not shown) [6-[3-(2,6-dichlorophenyl)-5-methyl-4-isoxazolecarboxamido]penicillinic acid 1-piperidineethyl ester hydrochloride], for which the “In vitro Penetration Rate (apparent flux), HPPs” value in series [1] (pH 7.4) is listed as 0.58 ± 0.05 mg/cm^2/h.

With `CCN(CC)CCOC(=O)C1N2C(=O)C(NC(=O)c3c(-c4c(Cl)cccc4Cl)noc3C)C2SC1(C)C.Cl` (stereo not shown) [6-[3-(2,6-dichlorophenyl)-5-methyl-4-isoxazolecarboxamido]penicillinic acid 2-diethylaminoethyl ester hydrochloride], the “Half life of HPPs in plasma” value in series [2] was determined as 12 ± 1 min.

Turning to `Cc1onc(-c2ccccc2Cl)c1C(=O)NC1C(=O)N2C1SC(C)(C)C2C(=O)OCCC1CCCNC1.Cl` (stereo not shown) [6-[3-(o-chlorophenyl)-5-methyl-4-isoxazolecarboxamido]penicillinic acid 3-piperidineethyl ester hydrochloride], the “In vitro Penetration Rate (apparent flux), HPPs” value in series [1] (pH 7.4) was 0.85 ± 0.05 mg/cm^2/h.

Regarding `CCN(CC)CCOC(=O)C1N2C(=O)C(NC(=O)[C@H](NC(C)=O)c3ccccc3)C2SC1(C)C.Cl` (stereo partly drawn) [6-[D(−)-α-acetamidophenylacetamidopenicillinic acid 2-diethylaminoethyl ester hydrochloride], in series [2], the “Half life of HPPs in plasma” value was 10 ± 1 min.

Turning to `CCOC(=O)C1N2C(=O)C(NC(=O)[C@H](N)c3ccccc3)C2SC1(C)C.Cl` (stereo partly drawn) [6-[D(−)-α-aminophenylacetamidopenicillinic acid ethyl ester hydrochloride], the “In vitro Penetration Rate (apparent flux), HPPs” value in series [1] (pH 7.4) was 0.82 ± 0.06 mg/cm^2/h.

On to `CC1(C)SC2C(NC(=O)C(NC(=O)N3CCN(S(C)(=O)=O)C3=O)c3ccccc3)C(=O)N2C1C(=O)OCCN1CCCC1.Cl` (stereo not drawn) [6R-[2-[3-(methylsulfonyl)-2-oxo-1-imidazolidinecarboxamido]-2-phenylacetamido]penicillinic acid 1-pyrrolidineethyl ester hydrochloride], for which, in series [1] (pH 7.4), the “In vitro Penetration Rate (apparent flux), HPPs” value is recorded as 0.79 ± 0.07 mg/cm^2/h.

For the compound `C=CCSCC(=O)NC1C(=O)N2C1SC(C)(C)C2C(=O)OCCN(C)C.Cl` (stereo not shown) [Allylmercaptomethylpenicillinic acid 2-dimethylaminoethyl ester hydrochloride], in series [1] (pH 7.4), the “In vitro Penetration Rate (apparent flux), HPPs” value is given as 0.65 ± 0.05 mg/cm^2/h.

For the compound `CC1(C)S[C@@H]2[C@H](NC(=O)[C@H](NC(=O)N3CCNC3=O)c3ccccc3)C(=O)N2[C@H]1C(=O)O` [Azlocillin, reference compound], the “In vitro Penetration Rate (apparent flux), Parent compounds” value in series [1] (human, 10 %, pH 7.4) is recorded as under 0.001 mg/cm^2/h.

For `N[C@@H](C(=O)N[C@@H]1C(=O)N2C(C(=O)O)=C(Cl)CS[C@H]12)c1ccccc1` [Cefaclor, reference compound], in series [1] (human, 10 %, pH 7.4), the “In vitro Penetration Rate (apparent flux), Parent compounds” value is recorded as under 0.016 mg/cm^2/h.

For the compound `C=CC1=C(C(=O)O)N2C(=O)[C@@H](NC(=O)/C(=N\OCC(=O)O)c3csc(N)n3)[C@H]2SC1` [Cefixime, reference compound], in series [1] (human, 10 %, pH 7.4), the “In vitro Penetration Rate (apparent flux), Parent compounds” value is reported as under 0.010 mg/cm^2/h.

In the case of `CCN1CCN(C(=O)N[C@@H](C(=O)N[C@@H]2C(=O)N3C(C(=O)O)=C(CSc4nnnn4C)CS[C@H]23)c2ccc(O)cc2)C(=O)C1=O` [Cefoperazone, reference compound], in series [1] (human, 10 %, pH 7.4), the “In vitro Penetration Rate (apparent flux), Parent compounds” value is on record as under 0.015 mg/cm^2/h.

`NCc1ccccc1CC(=O)N[C@@H]1C(=O)N2C(C(=O)O)=C(CSc3nnnn3CC(=O)O)CS[C@H]12` [Ceforanide, reference compound]: the “In vitro Penetration Rate (apparent flux), Parent compounds” value in series [1] (human, 10 %, pH 7.4) is under 0.001 mg/cm^2/h.

On to `COCC1=C(C(=O)OC(C)OC(=O)OC(C)C)N2C(=O)[C@@H](NC(=O)/C(=N\OC)c3csc(N)n3)[C@H]2SC1` (stereo partly shown) [Cefpodoxime proxetil, reference compound], for which, in series [1] (human, 10 %, pH 7.4), the “In vitro Penetration Rate (apparent flux), Parent compounds” value was under 0.001 mg/cm^2/h.

Take `CO/N=C(\C(=O)N[C@@H]1C(=O)N2C(C(=O)O)=C(COC(N)=O)CS[C@H]12)c1ccco1` [Cefuroxime, reference compound]: the “In vitro Penetration Rate (apparent flux), Parent compounds” value in series [1] (human, 10 %, pH 7.4) is under 0.001 mg/cm^2/h.

Regarding `CC(=O)OCC1=C(C(=O)O)N2C(=O)[C@@H](NC(=O)Cc3cccs3)[C@H]2SC1` [Cephalothin, reference compound], the “In vitro Penetration Rate (apparent flux), Parent compounds” value in series [1] (human, 10 %, pH 7.4) is under 0.001 mg/cm^2/h.

Consider `CC1(C)SC2C(NC(=O)[C@H](NC(=O)N3CCNC3=O)c3ccccc3)C(=O)N2C1C(=O)OCC1CCCN1.Cl` (stereo partly drawn) [D-α-[(imidazolidin-2-on-1-yl)carbonylamino]benzylpenicillin 2-pyrrolidinemethyl ester hydrochloride], for which, in series [1] (pH 7.4), the “In vitro Penetration Rate (apparent flux), HPPs” value came to 0.72 ± 0.05 mg/cm^2/h.

`CN(C)CCCC(=O)Nc1ccc(S(N)(=O)=O)cc1.Cl` [DMAB-sulfanilamide, 4-(4-dimethylaminobutyryl)amidobenzenesulfonamide•HCl salt]: the “In vitro Penetration Rate (apparent flux), HPPs of sulfonamides, sulfones, quinolones” value in series [1] (pH 7.4) is given as 0.18 ± 0.03 mg/cm^2/h.

With `Cc1onc(-c2c(Cl)cccc2Cl)c1C(=O)N[C@@H]1C(=O)N2[C@@H]1SC(C)(C)[C@@H]2C(=O)O` [Dicloxacillin, reference compound], the “In vitro Penetration Rate (apparent flux), Parent compounds” value in series [1] (human, 10 %, pH 7.4) is recorded as under 0.001 mg/cm^2/h.

For the compound `CC1(C)S[C@@H]2[C@H](NC(=O)[C@H](NC(=O)N3CCN(S(C)(=O)=O)C3=O)c3ccccc3)C(=O)N2[C@H]1C(=O)O` [Mezlocillin, reference compound], the “In vitro Penetration Rate (apparent flux), Parent compounds” value in series [1] (human, 10 %, pH 7.4) is listed as under 0.001 mg/cm^2/h.

For `Cl.O=C(NCP(=O)(OCCN1CCCCC1)Oc1cccnc1)OCc1ccccc1` (stereo not shown) [[(N-benzyloxycarbonylamino)methyl]-phosphonic acid (3-pyridinyl)(1-piperidineethyl) ester•HCl salt], the “In vitro Penetration Rate (apparent flux), HPPs of beta-lactamases inhibitors” value in series [1] (setting [3]) is 0.25 ± 0.04 mg/cm^2/h.

For the compound `CCN(CC)COP(=O)(CNC(=O)OCc1ccccc1)Oc1ccc([N+](=O)[O-])cc1.Cl` (stereo not shown) [[(N-benzyloxycarbonylamino)methyl]-phosphonic acid (4-nitrophenyl)(N,N-diethylaminomethyl) ester•HCl salt], the “In vitro Penetration Rate (apparent flux), HPPs of beta-lactamases inhibitors” value in series [1] (setting [3]) is recorded as 0.37 ± 0.03 mg/cm^2/h.

In the case of `O=C(NCP(=O)([O-])Oc1cccnc1)OCc1ccccc1.[Na+]` [[(N-benzyloxycarbonylamino)methyl]-phosphonic acid mono-(3-pyridinyl) ester sodium salt, reference compound], the “In vitro Penetration Rate (apparent flux), Parent compounds (beta-lactamases inhibitors)” value in series [1] (setting [3]) is under 0.001 mg/cm^2/h.

For `O=C(NCP(=O)([O-])Oc1ccc([N+](=O)[O-])cc1)OCc1ccccc1.[Na+]` [[(N-benzyloxycarbonylamino)methyl]-phosphonic acid mono-(4-nitrophenyl) ester sodium salt, reference compound], in series [1] (setting [3]), the “In vitro Penetration Rate (apparent flux), Parent compounds (beta-lactamases inhibitors)” value is on record as under 0.001 mg/cm^2/h.

For the compound `CO[C@@]1(NC(=O)Cc2cccs2)C(=O)N2C(C(=O)O)=C(COC(N)=O)CS[C@@H]21` [cefoxitin, reference compound], in series [1] (human, 10 %, pH 7.4), the “In vitro Penetration Rate (apparent flux), Parent compounds” value is reported as under 0.001 mg/cm^2/h.

For the compound `O=C(O)[C@H]1/C(=C/CO)O[C@@H]2CC(=O)N21` [clavulanic acid, (2R,5R,Z)-3-(2-hydroxyethylidene)-7-oxo-4-oxa-1-aza-bicyclo[3.2.0]heptane-2-carboxylic acid, reference compound], the “In vitro Penetration Rate (apparent flux), Parent compounds (beta-lactamases inhibitors)” value in series [1] (human, 10 %, pH 7.4) is on record as under 0.001 mg/cm^2/h.

As for `Cl.O=C(OCCC1CCNCC1)[C@H]1/C(=C/CO)O[C@@H]2CC(=O)N21` [clavulanic acid-PEE, (2R,5R,Z)-3-(2-hydroxyethylidene)-7-oxo-4-oxa-1-aza-bicyclo[3.2.0]heptane-2-carboxylic acid 4-piperidineethyl ester•HCl salt], in series [1] (pH 7.4), the “In vitro Penetration Rate (apparent flux), HPPs of beta-lactamases inhibitors” value was found to be 0.29 ± 0.02 mg/cm^2/h.

Regarding `C=CCSCC(=O)N[C@@H]1C(=O)N2[C@@H]1SC(C)(C)[C@@H]2C(=O)O` [penicillin O, reference compound], in series [1] (pH 7.4), the “In vitro Penetration Rate (apparent flux), Parent compounds” value is recorded as under 0.001 mg/cm^2/h.

As for `CCN(CC)CCCOC(=O)C1=CC(=NNc2ccc(S(=O)(=O)Nc3ccccn3)cc2)C=CC1=O.Cl` [sulfasalazine-DEPE, 6-oxo-3-(2-[4-(N-pyridin-2-ylsulfamoyl)phenyl]hydrazono)cyclohexa-1,4-dienecarboxylic acid N,N-diethyaminopropyl ester•HCl salt], in series [1] (pH 7.4), the “In vitro Penetration Rate (apparent flux), HPPs of sulfonamides, sulfones, quinolones” value came out at 0.21 ± 0.03 mg/cm^2/h.

As for `C[C@]1(Cn2ccnn2)[C@H](C(=O)O)N2C(=O)C[C@H]2S1(=O)=O` [tazobactam, [2S-(2alpha,3beta,5alpha)]-3-Methyl-7-oxo-3-(1H-1,2,3-triazol-1-ylmethyl)-4-thia-1-azabicyclo[3.2.0]heptane-2-carboxylic acid 4,4-dioxide sodium salt, reference compound], the “In vitro Penetration Rate (apparent flux), Parent compounds (beta-lactamases inhibitors)” value in series [1] (human, 10 %, pH 7.4) is given as under 0.001 mg/cm^2/h.

Take `C[C@]1(Cn2ccnn2)[C@H](C(=O)OCCN2CCCCC2)N2C(=O)C[C@H]2S1(=O)=O.Cl` [tazobactam-PEE, [2S-(2alpha,3beta,5alpha)]-3-Methyl-7-oxo-3-(1H-1,2,3-triazol-1-ylmethyl)-4-thia-1-azabicyclo[3.2.0]heptane-2-carboxylic acid 4,4-dioxide 1-piperidineethyl ester•HCl salt]: the “In vitro Penetration Rate (apparent flux), HPPs of beta-lactamases inhibitors” value in series [1] (pH 7.4) amounted to 0.32 ± 0.03 mg/cm^2/h.

(Values after patent US11485744B2, “High penetration prodrug compositions of antimicrobials and antimicrobial-related compounds” (priority 2009, dated 2022).)
